Experimental findings from ChEMBL document CHEMBL1201862, “PubChem BioAssay data set” (2004) are described below.

Some test systems named below: TK-10; UO-31; MOLT-4; OVCAR-5; SF-539; M14; SNB-19; K562; KM12; NCI-H522; SN12C; HT-29; A498; SK-OV-3; MDA-MB-435; SNB-75; OVCAR-8; NCI/ADR-RES; Hs-578T; MCF7.
Experiment in all cases: inhibition of tumour cell growth, NCI panel, 48 h

Each structure is given as a SMILES string.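 Test compounds were applied to cells in 96-well plates for 48 hours at 5 doses. At the GI50, growth is halved.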 Activity calls are given as the source filed them. No stated cut-off is given here; in the data, active = GI50 up to about 1.1 µM and inactive = higher.

For `NC(=O)/N=C1\NCCC(=O)N1CCc1c[nH]c2ccccc12`, the GI50 in the assay with TK-10 was 17.5 µM (inactive); in the assay on UO-31 it was 15.9 µM (inactive); with MOLT-4 it was 14.5 µM (inactive); in the assay on OVCAR-5 it was 39.4 µM (inactive); in the assay on SF-539, 15.6 µM (inactive); in the assay with M14 it was 14.8 µM (inactive). In addition, the GI50 is 21.4 µM (inactive) in the assay with SNB-19; 12.4 µM (inactive) in the assay with K562; 37.8 µM (inactive) with KM12; 25.7 µM (inactive) in the assay with NCI-H522; 21.9 µM (inactive) with SN12C; 17.1 µM (inactive) in the assay with HT-29. The GI50 in the assay with A498 was 17.3 µM (inactive); in the assay on SK-OV-3 it was 50.7 µM (inactive); in the assay with MDA-MB-435, 17.8 µM (inactive); in the assay on SNB-75, 10.2 µM (inactive); with OVCAR-8, 17.9 µM (inactive); in the assay on NCI/ADR-RES, 17.2 µM (inactive). Also, the GI50 with Hs-578T is 20.5 µM (inactive).
Turning to `O=C(NC1=C(Cl)C(=O)c2ccccc2C1=O)C(=O)C(C(=O)c1ccc2ccccc2c1)C1OC(=O)c2ccccc21` (stereo unspecified), the GI50 in the assay on TK-10 is 25.6 µM (inactive); in the assay on UO-31 it was 13.2 µM (inactive); in the assay on MOLT-4 it was 2.06 µM (inactive); in the assay on OVCAR-5, 11.8 µM (inactive); in the assay on SF-539, 2.95 µM (inactive); with M14 it was 2.18 µM (inactive). Also, the GI50 in the assay with SNB-19 was 6.03 µM (inactive); in the assay with K562, 3.55 µM (inactive); in the assay on KM12 it was 3.09 µM (inactive); with NCI-H522, 3.94 µM (inactive); in the assay with SN12C, 4.36 µM (inactive); in the assay on HT-29, 4.07 µM (inactive). In addition, the GI50 with MCF7 is 2.74 µM (inactive); with A498, 4.68 µM (inactive); in the assay with SK-OV-3, 13.2 µM (inactive); in the assay with MDA-MB-435 it was 1.7 µM (inactive); in the assay with SNB-75, 2.87 µM (inactive); with OVCAR-8 it was 4.61 µM (inactive). In addition, the GI50 in the assay on Hs-578T was 6.25 µM (inactive).
For the compound `Clc1ccc(OCc2nnc3sc(-c4ccc(-c5ccc(Cl)cc5Cl)o4)nn23)cc1`, the GI50 in the assay with TK-10, with UO-31, in the assay with MOLT-4, in the assay with OVCAR-5, with M14 and with SNB-19 was > 100 µM (inactive) in each case. In addition, the GI50 with K562, in the assay on KM12, with NCI-H522, with SN12C, in the assay on HT-29 and in the assay on A498 was > 100 µM (inactive) in each case. Also, the GI50 in the assay with SK-OV-3 is > 100 µM (inactive); in the assay with MDA-MB-435 it was > 100 µM (inactive); in the assay on SNB-75, 7.85 µM (inactive); with OVCAR-8 it was > 100 µM (inactive); in the assay on NCI/ADR-RES it was > 100 µM (inactive); with Hs-578T, > 100 µM (inactive).
For the compound `N/C(=N\c1ccc(Cl)cc1)NS(=O)(=O)c1ccc(-c2ncccc2C(F)(F)F)s1`, the GI50 with TK-10 is 13.4 µM (inactive); in the assay with UO-31, 17.2 µM (inactive); in the assay with MOLT-4, 12.7 µM (inactive); in the assay on OVCAR-5, 24.3 µM (inactive); with SF-539 it was 25.8 µM (inactive); in the assay on M14, 14.6 µM (inactive). Further, the GI50 is 18.6 µM (inactive) in the assay with SNB-19; 13.1 µM (inactive) with K562; 23.9 µM (inactive) in the assay on KM12; 10.4 µM (inactive) in the assay on NCI-H522; 17.2 µM (inactive) with SN12C; 19.4 µM (inactive) in the assay on HT-29. The GI50 with MCF7 was 14.7 µM (inactive); in the assay with A498, 16.7 µM (inactive); with SK-OV-3, 17.4 µM (inactive); with SNB-75 it was 18.8 µM (inactive); in the assay with OVCAR-8 it was 14.6 µM (inactive); in the assay with NCI/ADR-RES it was 18.8 µM (inactive). Moreover, the GI50 in the assay on Hs-578T was 17.1 µM (inactive).
Regarding `CNC(=O)OC1/C(C)=C\C(C)C(O)C(OC)CC(C)CC2=C(OC)C(=O)C=C(C2=O)N(C)C(=O)/C(C)=C/C=C\C1OC` (stereo unspecified), the GI50 in the assay on TK-10 is 7.64 µM (inactive); with UO-31 it was 7.69 µM (inactive); in the assay on MOLT-4, 0.891 µM (active); in the assay with OVCAR-5, 13.1 µM (inactive); in the assay with SF-539, 8.32 µM (inactive); in the assay on M14, 3.08 µM (inactive). In addition, the GI50 in the assay on SNB-19 was 36.2 µM (inactive); in the assay on K562, 0.578 µM (active); with KM12, 10.4 µM (inactive); in the assay with NCI-H522 it was 0.879 µM (active); in the assay on SN12C it was 3.62 µM (inactive); with HT-29, 1.19 µM (inactive). Besides, the GI50 in the assay with A498 is 18.5 µM (inactive); in the assay on SK-OV-3, 10.2 µM (inactive); in the assay with SNB-75, 14.2 µM (inactive); in the assay on OVCAR-8 it was 7.38 µM (inactive); with NCI/ADR-RES, 20 µM (inactive); in the assay on Hs-578T, 4.03 µM (inactive).
On to `CC(=O)OC1C(O)C(C)OC(OC2C(OC(=O)C3CCC4C(C3)OC3(CC(OC(=O)/C=C/c5ccccc5)C(C)CO3)C43CO3)OC(C)C(O)C2OC(C)=O)C1O` (stereo unspecified), for which the GI50 with TK-10 was 0.0506 µM (active); in the assay with UO-31, 0.721 µM (active); with MOLT-4 it was 0.00468 µM (active); in the assay on OVCAR-5, 0.0291 µM (active); with SF-539 it was 0.00736 µM (active); in the assay on M14, 0.00433 µM (active). Besides, the GI50 is 0.00617 µM (active) in the assay with SNB-19; 0.00622 µM (active) with K562; 0.00912 µM (active) with KM12; 0.00284 µM (active) in the assay with NCI-H522; 0.0203 µM (active) in the assay with SN12C; 0.00689 µM (active) in the assay on HT-29. In addition, the GI50 was 0.00429 µM (active) in the assay on MCF7; 0.0526 µM (active) with A498; 0.0145 µM (active) in the assay on SK-OV-3; 0.000668 µM (active) in the assay on MDA-MB-435; 0.00867 µM (active) with SNB-75; 0.0352 µM (active) with OVCAR-8. In addition, in the assay on Hs-578T, the GI50 was 0.00124 µM (active).
`Cn1c2ccc3cc2c(=S)c2cc(ccc21)OCCOCCOCCOCCOCCOCCO3`: the GI50 in the assay on TK-10, in the assay with UO-31, in the assay on MOLT-4, in the assay with OVCAR-5, in the assay on SF-539 and in the assay on M14 was > 10 µM (inactive) throughout. For the same compound, the GI50 in the assay with SNB-19, with K562, in the assay on KM12, with NCI-H522, in the assay on SN12C and with HT-29 was > 10 µM (inactive) each time. Moreover, the GI50 with MCF7, in the assay on A498, in the assay with SK-OV-3, in the assay with SNB-75, with OVCAR-8 and in the assay on NCI/ADR-RES was > 10 µM (inactive) each time. The GI50 in the assay on Hs-578T was > 10 µM (inactive).
As for `S=C1Cc2c([nH]c3ccccc23)-c2ccccc2N1`, the GI50 in the assay on TK-10 is 21.5 µM (inactive); with UO-31 it was 19.1 µM (inactive); in the assay on MOLT-4, 23.6 µM (inactive); in the assay on OVCAR-5 it was > 100 µM (inactive); in the assay with SF-539, 43.6 µM (inactive); in the assay on M14 it was > 100 µM (inactive). Further, the GI50 in the assay on SNB-19 was 34.4 µM (inactive); in the assay on K562 it was 47.5 µM (inactive); in the assay on KM12, > 100 µM (inactive); with SN12C, 38.6 µM (inactive); in the assay with HT-29, > 100 µM (inactive); in the assay with MCF7, > 100 µM (inactive). The GI50 in the assay on SK-OV-3 was 24.2 µM (inactive); in the assay with MDA-MB-435 it was > 100 µM (inactive); with SNB-75, 26.2 µM (inactive); with OVCAR-8, 38.3 µM (inactive); in the assay on NCI/ADR-RES, 50 µM (inactive); in the assay with Hs-578T, 61 µM (inactive).
On to `Cn1c2ccccc2c(=O)c2cccc(C(=O)NC(CCCNC(=N)N)C(=O)O)c21` (stereo unspecified), for which the GI50 in the assay on TK-10, in the assay on UO-31, in the assay with MOLT-4, in the assay on OVCAR-5, in the assay with SF-539 and in the assay with M14 was > 100 µM (inactive) each time. In addition, the GI50 in the assay with SNB-19, in the assay with K562, in the assay on KM12, in the assay with SN12C, in the assay on HT-29 and with MCF7 was > 100 µM (inactive) throughout. Also, the GI50 was > 100 µM (inactive) in the assay on SK-OV-3; > 100 µM (inactive) in the assay on MDA-MB-435; > 100 µM (inactive) in the assay on SNB-75; > 100 µM (inactive) with OVCAR-8; 26.1 µM (inactive) in the assay on NCI/ADR-RES; > 100 µM (inactive) in the assay with Hs-578T.
For `C=C(C)C12OC3(c4ccccc4)OC1C1C4OC4(CO)C(O)C4(O)C(=O)C(C)=CC4C1(O3)C(C)C2OC(=O)/C=C/C=C/c1ccccc1` (stereo unspecified), the GI50 in the assay on TK-10 is < 0.0005 µM (active); in the assay with UO-31, 0.0702 µM (active); with MOLT-4, 0.113 µM (active); in the assay with OVCAR-5, 0.0802 µM (active); in the assay on SF-539 it was 0.372 µM (active); in the assay with M14 it was 0.0853 µM (active). Further, the GI50 in the assay with SNB-19 is 0.713 µM (active); in the assay on K562, < 0.0005 µM (active); in the assay with KM12, 0.156 µM (active); in the assay with NCI-H522, 0.267 µM (active); in the assay on SN12C it was 0.112 µM (active); with HT-29 it was 0.0836 µM (active). The GI50 in the assay on MCF7 was 0.222 µM (active); with A498, < 0.0005 µM (active); in the assay with SK-OV-3 it was 1.15 µM (inactive); in the assay on MDA-MB-435, < 0.0005 µM (active); with SNB-75, 0.132 µM (active); in the assay with OVCAR-8 it was 0.357 µM (active). Moreover, the GI50 in the assay on NCI/ADR-RES is 0.344 µM (active).
